In ChEMBL document CHEMBL1156502, “Stabilized immune modulatory RNA compounds as agonists of Toll-like receptors 7 and 8” (Proc Natl Acad Sci U S A, 2007):
Activity calls are given as the source filed them. The calls are words filed in the database; no cut-off is given here.

Legend:
PBMC [1] = assay: Induction of IL12 secretion in human PBMC after 24 hrs by Luminex Multiplex assay; format: functional, cell-based
PBMC [2] = assay: Induction of IL1-beta secretion in human PBMC after 24 hrs by Luminex Multiplex assay; format: functional, cell-based
PBMC [3] = assay: Induction of IL2R secretion in human PBMC after 24 hrs by Luminex Multiplex assay; format: functional, cell-based
[4] = Stability in 1% human serum assessed as full length product after 10 mins; format: ADME, cell-free; conditions: read-out: Stability
PBMC [5] = assay: Induction of IL10 secretion in human PBMC after 24 hrs by Luminex Multiplex assay; format: functional, cell-based
PBMC [6] = assay: Induction of IFNalpha secretion in human PBMC after 24 hrs by Luminex Multiplex assay; format: functional, cell-based
PBMC [7] = assay: Induction of IFN-gamma secretion in human PBMC after 24 hrs by Luminex Multiplex assay; format: functional, cell-based
[8] = target: T1, Toll-like receptor 7 (Homo sapiens) (UniProt Q9NYK1); assay: Activation of human TLR7 expressed in HEK293 cells assessed as increase in NF-kappaB activation at 100 ug/ml by SEAP assay; format: cell-based
T1 sequence (whole entry): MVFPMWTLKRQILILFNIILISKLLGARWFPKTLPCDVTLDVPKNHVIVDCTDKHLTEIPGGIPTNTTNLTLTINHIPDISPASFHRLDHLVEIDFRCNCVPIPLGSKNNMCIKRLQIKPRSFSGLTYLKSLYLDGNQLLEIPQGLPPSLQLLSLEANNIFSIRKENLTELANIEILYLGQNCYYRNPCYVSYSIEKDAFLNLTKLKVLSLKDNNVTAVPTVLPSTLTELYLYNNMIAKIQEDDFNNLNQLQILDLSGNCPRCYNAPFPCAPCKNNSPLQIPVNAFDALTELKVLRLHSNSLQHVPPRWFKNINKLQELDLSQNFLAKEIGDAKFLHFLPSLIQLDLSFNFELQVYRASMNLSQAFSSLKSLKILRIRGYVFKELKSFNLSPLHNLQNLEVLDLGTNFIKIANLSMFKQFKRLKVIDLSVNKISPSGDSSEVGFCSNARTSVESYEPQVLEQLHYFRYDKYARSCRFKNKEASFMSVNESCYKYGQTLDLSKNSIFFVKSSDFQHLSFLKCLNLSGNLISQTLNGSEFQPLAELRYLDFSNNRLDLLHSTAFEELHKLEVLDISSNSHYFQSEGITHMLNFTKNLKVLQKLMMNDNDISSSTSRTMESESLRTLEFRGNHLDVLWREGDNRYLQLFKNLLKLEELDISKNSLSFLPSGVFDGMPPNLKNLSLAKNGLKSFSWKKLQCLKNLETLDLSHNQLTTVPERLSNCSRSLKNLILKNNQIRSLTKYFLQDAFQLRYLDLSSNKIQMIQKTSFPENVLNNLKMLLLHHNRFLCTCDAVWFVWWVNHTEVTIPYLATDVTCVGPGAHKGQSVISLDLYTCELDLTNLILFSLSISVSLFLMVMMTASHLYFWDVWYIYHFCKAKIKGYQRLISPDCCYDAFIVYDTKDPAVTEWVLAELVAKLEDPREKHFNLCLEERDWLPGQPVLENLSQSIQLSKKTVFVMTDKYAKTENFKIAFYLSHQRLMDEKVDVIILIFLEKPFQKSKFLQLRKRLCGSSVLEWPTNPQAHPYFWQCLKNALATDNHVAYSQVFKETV

[9] = target: T2, Toll-like receptor 8 (Homo sapiens) (UniProt Q9NR97); assay: Activation of human TLR8 expressed in HEK293 cells assessed as increase in NF-kappaB activation at 100 ug/ml by SEAP assay; format: cell-based
T2 sequence (whole entry): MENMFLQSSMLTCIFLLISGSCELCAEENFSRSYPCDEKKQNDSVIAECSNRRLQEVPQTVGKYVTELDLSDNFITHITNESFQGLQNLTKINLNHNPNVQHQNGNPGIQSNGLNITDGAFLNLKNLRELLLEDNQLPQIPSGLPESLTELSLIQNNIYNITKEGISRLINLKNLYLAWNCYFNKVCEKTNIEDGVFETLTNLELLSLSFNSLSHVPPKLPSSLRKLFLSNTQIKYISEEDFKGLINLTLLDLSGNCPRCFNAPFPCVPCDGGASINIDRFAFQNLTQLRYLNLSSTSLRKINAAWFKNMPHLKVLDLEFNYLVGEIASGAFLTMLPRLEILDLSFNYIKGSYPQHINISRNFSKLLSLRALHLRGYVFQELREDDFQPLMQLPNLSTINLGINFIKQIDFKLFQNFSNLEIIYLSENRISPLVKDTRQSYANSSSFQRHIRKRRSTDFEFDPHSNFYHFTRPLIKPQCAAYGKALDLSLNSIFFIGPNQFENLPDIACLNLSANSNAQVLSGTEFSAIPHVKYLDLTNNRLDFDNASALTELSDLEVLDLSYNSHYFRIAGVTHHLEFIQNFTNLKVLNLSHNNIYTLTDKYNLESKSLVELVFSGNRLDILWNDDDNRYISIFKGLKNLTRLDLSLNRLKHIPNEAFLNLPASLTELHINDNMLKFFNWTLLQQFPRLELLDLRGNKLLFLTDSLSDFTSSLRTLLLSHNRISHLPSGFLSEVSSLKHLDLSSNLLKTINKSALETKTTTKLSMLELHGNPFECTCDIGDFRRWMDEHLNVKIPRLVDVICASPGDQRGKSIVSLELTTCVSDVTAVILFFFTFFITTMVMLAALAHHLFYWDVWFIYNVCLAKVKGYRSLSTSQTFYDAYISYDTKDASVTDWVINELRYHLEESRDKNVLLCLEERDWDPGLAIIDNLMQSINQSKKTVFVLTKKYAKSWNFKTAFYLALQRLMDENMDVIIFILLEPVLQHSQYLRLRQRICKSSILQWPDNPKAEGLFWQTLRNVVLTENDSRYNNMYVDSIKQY

spleen [10] = assay: Induction of cytokine secretion in C57BL/6 mouse spleen cells at 100 ug/ml after 24 hrs by Luminex Multiplex assay; format: functional, cell-based
Dendritic cell = assay: Induction of IFNalpha secretion in human plasmacytoid dendritic cells at 200 ug/ml after 24 hrs by Luminex Multiplex assay; format: functional
spleen [11] = assay: Induction of chemokine secretion in C57BL/6 mouse spleen cells 100 ug/ml after 24 hrs by Luminex Multiplex assay; format: functional, cell-based

Row | SMILES | Activity (PBMC [1]) | Activity (PBMC [2]) | Activity (PBMC [3]) | remaining at 10 min [4] [%] | Activity (PBMC [5]) | Activity (PBMC [6]) | Activity (PBMC [7]) | Activity [8] | Activity [9] | Activity (spleen [10]) | Activity (Dendritic cell) | Activity (spleen [11])
1 | Nc1ccn([C@@H]2O[C@H](COP(O)(=S)O[C@H]3[C@@H](O)[C@H](n4ccc(=O)[nH]c4=O)O[C@@H]3COP(O)(=S)O[C@H]3[C@@H](O)[C@H](n4ccc(=O)[nH]c4=O)O[C@@H]3COP(O)(=S)O[C@H]3[C@@H](O)[C@H](n4ccc(N)nc4=O)O[C@@H]3COP(O)(=S)O[C@H]3[C@@H](O)[C@H](n4cnc5c(=O)[nH]c(N)nc54)O[C@@H]3COP(O)(=S)O[C@H]3[C@@H](O)[C@H](n4ccc(=O)[nH]c4=O)O[C@@H]3COP(O)(=S)O[C@H]3[C@@H](O)[C@H](n4ccc(N)nc4=O)O[C@@H]3COP(O)(=S)O[C@H]3[C@@H](O)[C@H](n4cnc5c(=O)[nH]c(N)nc54)O[C@@H]3COP(O)(=S)O[C@H]3[C@@H](O)[C@H](n4ccc(=O)[nH]c4=O)O[C@@H]3CO)[C@@H](OP(O)(=S)OC[C@H]3O[C@@H](n4ccc(=O)[nH]c4=O)[C@H](O)[C@@H]3OP(O)(=S)OC[C@H]3O[C@@H](n4cnc5c(=O)[nH]c(N)nc54)[C@H](O)[C@@H]3OP(O)(=S)OCC(O)COP(O)(=S)O[C@H]3[C@@H](O)[C@H](n4cnc5c(=O)[nH]c(N)nc54)O[C@@H]3COP(O)(=S)O[C@H]3[C@@H](O)[C@H](n4ccc(=O)[nH]c4=O)O[C@@H]3COP(O)(=S)O[C@H]3[C@@H](O)[C@H](n4ccc(N)nc4=O)O[C@@H]3COP(O)(=S)O[C@H]3[C@@H](O)[C@H](n4ccc(=O)[nH]c4=O)O[C@@H]3COP(O)(=S)O[C@H]3[C@@H](O)[C@H](n4ccc(=O)[nH]c4=O)O[C@@H]3COP(O)(=S)O[C@H]3[C@@H](O)[C@H](n4ccc(N)nc4=O)O[C@@H]3COP(O)(=S)O[C@H]3[C@@H](O)[C@H](n4cnc5c(=O)[nH]c(N)nc54)O[C@@H]3COP(O)(=S)O[C@H]3[C@@H](O)[C@H](n4ccc(=O)[nH]c4=O)O[C@@H]3COP(O)(=S)O[C@H]3[C@@H](O)[C@H](n4ccc(N)nc4=O)O[C@@H]3COP(O)(=S)O[C@H]3[C@@H](O)[C@H](n4cnc5c(=O)[nH]c(N)nc54)O[C@@H]3COP(O)(=S)O[C@H]3[C@@H](O)[C@H](n4ccc(=O)[nH]c4=O)O[C@@H]3CO)[C@H]2O)c(=O)n1 (some centres undefined) | Dose-dependent effect | Dose-dependent effect | Dose-dependent effect | 56 | Dose-dependent effect | Dose-dependent effect | Dose-dependent effect | inactive | Active |  |  | 
2 | Nc1ccn([C@@H]2O[C@H](COP(O)(=S)O[C@H]3[C@@H](O)[C@H](n4ccc(=O)[nH]c4=O)O[C@@H]3COP(O)(=S)O[C@H]3[C@@H](O)[C@H](n4ccc(=O)[nH]c4=O)O[C@@H]3COP(O)(=S)O[C@H]3[C@@H](O)[C@H](n4ccc(N)nc4=O)O[C@@H]3COP(O)(=S)O[C@H]3[C@@H](O)[C@H](n4ccc5c(=O)[nH]c(N)nc54)O[C@@H]3COP(O)(=S)O[C@H]3[C@@H](O)[C@H](n4ccc(=O)[nH]c4=O)O[C@@H]3COP(O)(=S)O[C@H]3[C@@H](O)[C@H](n4ccc(N)nc4=O)O[C@@H]3COP(O)(=S)O[C@H]3[C@@H](O)[C@H](n4ccc5c(=O)[nH]c(N)nc54)O[C@@H]3COP(O)(=S)O[C@H]3[C@@H](O)[C@H](n4ccc(=O)[nH]c4=O)O[C@@H]3CO)[C@@H](OP(O)(=S)OC[C@H]3O[C@@H](n4ccc(=O)[nH]c4=O)[C@H](O)[C@@H]3OP(O)(=S)OC[C@H]3O[C@@H](n4ccc5c(=O)[nH]c(N)nc54)[C@H](O)[C@@H]3OP(O)(=S)OCCC(O)CCOP(O)(=S)O[C@H]3[C@@H](O)[C@H](n4ccc5c(=O)[nH]c(N)nc54)O[C@@H]3COP(O)(=S)O[C@H]3[C@@H](O)[C@H](n4ccc(=O)[nH]c4=O)O[C@@H]3COP(O)(=S)O[C@H]3[C@@H](O)[C@H](n4ccc(N)nc4=O)O[C@@H]3COP(O)(=S)O[C@H]3[C@@H](O)[C@H](n4ccc(=O)[nH]c4=O)O[C@@H]3COP(O)(=S)O[C@H]3[C@@H](O)[C@H](n4ccc(=O)[nH]c4=O)O[C@@H]3COP(O)(=S)O[C@H]3[C@@H](O)[C@H](n4ccc(N)nc4=O)O[C@@H]3COP(O)(=S)O[C@H]3[C@@H](O)[C@H](n4ccc5c(=O)[nH]c(N)nc54)O[C@@H]3COP(O)(=S)O[C@H]3[C@@H](O)[C@H](n4ccc(=O)[nH]c4=O)O[C@@H]3COP(O)(=S)O[C@H]3[C@@H](O)[C@H](n4ccc(N)nc4=O)O[C@@H]3COP(O)(=S)O[C@H]3[C@@H](O)[C@H](n4ccc5c(=O)[nH]c(N)nc54)O[C@@H]3COP(O)(=S)O[C@H]3[C@@H](O)[C@H](n4ccc(=O)[nH]c4=O)O[C@@H]3CO)[C@H]2O)c(=O)n1 (some centres undefined) |  |  |  |  |  |  |  | Active | Active | Dose-dependent effect | Active | Dose-dependent effect
